This note sets out measurements from ChEMBL document CHEMBL3991601, “The target landscape of clinical kinase drugs” (Science, 2017).

Each structure is given as a SMILES string. Activity calls are given as the source filed them.

For experiment [1], the target named is T1, Calcium/calmodulin-dependent protein kinase type IV (Homo sapiens, UniProt Q16566).
T1 sequence (Q16566 whole entry): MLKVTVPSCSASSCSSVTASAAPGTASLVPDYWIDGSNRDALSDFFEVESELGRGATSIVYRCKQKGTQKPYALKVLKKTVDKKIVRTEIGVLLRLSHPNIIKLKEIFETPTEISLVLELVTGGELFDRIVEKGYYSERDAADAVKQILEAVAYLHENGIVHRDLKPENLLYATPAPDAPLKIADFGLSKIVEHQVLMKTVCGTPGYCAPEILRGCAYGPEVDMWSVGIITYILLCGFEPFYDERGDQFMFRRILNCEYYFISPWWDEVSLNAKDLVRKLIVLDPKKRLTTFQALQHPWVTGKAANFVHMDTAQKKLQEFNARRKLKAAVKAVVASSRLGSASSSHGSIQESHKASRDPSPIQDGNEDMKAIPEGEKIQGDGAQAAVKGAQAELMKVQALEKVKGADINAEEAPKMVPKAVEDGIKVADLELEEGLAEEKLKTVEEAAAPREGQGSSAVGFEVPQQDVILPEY

Experiment [2] deals with Mitogen-activated protein kinase kinase kinase 4 (Homo sapiens, UniProt Q9Y6R4).
The target in experiment [3] is T2, STE20-related kinase adapter protein alpha (Homo sapiens, UniProt Q7RTN6).
T2 sequence (Q7RTN6 whole entry): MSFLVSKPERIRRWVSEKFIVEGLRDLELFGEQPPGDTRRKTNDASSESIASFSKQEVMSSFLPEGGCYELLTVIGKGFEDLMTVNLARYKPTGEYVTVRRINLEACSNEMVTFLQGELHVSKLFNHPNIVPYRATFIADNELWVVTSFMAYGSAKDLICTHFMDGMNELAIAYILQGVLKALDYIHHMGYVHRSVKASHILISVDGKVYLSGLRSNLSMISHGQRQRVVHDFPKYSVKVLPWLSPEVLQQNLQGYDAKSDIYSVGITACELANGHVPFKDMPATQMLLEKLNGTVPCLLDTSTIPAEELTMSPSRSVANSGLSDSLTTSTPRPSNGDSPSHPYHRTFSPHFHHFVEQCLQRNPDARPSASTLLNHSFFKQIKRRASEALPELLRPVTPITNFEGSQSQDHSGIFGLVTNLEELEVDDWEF

Experiment [4] deals with T3, ATP-dependent RNA helicase DDX42 (Homo sapiens, UniProt Q86XP3).
T3 sequence (Q86XP3 whole entry): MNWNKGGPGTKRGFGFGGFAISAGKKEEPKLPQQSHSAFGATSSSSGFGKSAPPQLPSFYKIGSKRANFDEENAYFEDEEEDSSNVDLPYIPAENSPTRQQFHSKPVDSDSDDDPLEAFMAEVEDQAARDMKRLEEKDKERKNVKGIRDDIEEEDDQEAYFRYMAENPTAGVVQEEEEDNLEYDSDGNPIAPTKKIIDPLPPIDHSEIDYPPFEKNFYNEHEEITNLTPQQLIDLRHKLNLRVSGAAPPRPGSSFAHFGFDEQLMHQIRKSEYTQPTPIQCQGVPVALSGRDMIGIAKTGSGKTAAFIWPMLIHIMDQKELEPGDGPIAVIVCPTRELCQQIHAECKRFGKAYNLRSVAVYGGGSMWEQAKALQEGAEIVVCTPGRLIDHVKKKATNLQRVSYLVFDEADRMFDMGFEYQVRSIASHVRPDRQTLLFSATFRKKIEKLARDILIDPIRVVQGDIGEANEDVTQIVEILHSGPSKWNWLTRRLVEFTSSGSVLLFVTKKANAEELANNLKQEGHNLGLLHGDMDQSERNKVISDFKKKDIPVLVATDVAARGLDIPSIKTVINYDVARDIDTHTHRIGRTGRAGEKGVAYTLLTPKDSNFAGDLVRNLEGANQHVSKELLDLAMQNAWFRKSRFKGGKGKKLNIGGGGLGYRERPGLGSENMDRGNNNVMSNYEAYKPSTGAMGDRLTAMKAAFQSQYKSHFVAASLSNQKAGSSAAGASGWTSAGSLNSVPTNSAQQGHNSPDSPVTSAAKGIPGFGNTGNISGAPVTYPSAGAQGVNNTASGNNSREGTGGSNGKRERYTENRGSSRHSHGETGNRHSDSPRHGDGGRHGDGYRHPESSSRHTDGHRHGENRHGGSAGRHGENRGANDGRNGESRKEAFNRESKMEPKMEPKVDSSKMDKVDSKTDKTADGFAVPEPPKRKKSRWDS

Experiment [5] has as its target Mitogen-activated protein kinase 3 (Homo sapiens, UniProt P27361).
A further experiment addresses Wee1-like protein kinase (Homo sapiens, UniProt P30291).
Also: in the data inactive means no Kd found up to 30 µM.

Mitogen-activated protein kinase 3, sequence (P27361 whole entry): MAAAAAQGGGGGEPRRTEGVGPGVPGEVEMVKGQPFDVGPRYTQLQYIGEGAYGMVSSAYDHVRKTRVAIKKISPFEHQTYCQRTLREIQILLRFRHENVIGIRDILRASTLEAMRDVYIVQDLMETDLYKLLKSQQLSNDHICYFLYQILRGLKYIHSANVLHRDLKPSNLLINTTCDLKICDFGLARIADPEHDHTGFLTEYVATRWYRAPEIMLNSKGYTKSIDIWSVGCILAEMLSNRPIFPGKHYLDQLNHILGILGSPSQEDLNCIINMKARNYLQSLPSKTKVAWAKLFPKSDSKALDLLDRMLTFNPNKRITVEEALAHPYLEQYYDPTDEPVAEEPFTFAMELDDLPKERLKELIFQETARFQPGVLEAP
Mitogen-activated protein kinase kinase kinase 4, sequence (Q9Y6R4 whole entry): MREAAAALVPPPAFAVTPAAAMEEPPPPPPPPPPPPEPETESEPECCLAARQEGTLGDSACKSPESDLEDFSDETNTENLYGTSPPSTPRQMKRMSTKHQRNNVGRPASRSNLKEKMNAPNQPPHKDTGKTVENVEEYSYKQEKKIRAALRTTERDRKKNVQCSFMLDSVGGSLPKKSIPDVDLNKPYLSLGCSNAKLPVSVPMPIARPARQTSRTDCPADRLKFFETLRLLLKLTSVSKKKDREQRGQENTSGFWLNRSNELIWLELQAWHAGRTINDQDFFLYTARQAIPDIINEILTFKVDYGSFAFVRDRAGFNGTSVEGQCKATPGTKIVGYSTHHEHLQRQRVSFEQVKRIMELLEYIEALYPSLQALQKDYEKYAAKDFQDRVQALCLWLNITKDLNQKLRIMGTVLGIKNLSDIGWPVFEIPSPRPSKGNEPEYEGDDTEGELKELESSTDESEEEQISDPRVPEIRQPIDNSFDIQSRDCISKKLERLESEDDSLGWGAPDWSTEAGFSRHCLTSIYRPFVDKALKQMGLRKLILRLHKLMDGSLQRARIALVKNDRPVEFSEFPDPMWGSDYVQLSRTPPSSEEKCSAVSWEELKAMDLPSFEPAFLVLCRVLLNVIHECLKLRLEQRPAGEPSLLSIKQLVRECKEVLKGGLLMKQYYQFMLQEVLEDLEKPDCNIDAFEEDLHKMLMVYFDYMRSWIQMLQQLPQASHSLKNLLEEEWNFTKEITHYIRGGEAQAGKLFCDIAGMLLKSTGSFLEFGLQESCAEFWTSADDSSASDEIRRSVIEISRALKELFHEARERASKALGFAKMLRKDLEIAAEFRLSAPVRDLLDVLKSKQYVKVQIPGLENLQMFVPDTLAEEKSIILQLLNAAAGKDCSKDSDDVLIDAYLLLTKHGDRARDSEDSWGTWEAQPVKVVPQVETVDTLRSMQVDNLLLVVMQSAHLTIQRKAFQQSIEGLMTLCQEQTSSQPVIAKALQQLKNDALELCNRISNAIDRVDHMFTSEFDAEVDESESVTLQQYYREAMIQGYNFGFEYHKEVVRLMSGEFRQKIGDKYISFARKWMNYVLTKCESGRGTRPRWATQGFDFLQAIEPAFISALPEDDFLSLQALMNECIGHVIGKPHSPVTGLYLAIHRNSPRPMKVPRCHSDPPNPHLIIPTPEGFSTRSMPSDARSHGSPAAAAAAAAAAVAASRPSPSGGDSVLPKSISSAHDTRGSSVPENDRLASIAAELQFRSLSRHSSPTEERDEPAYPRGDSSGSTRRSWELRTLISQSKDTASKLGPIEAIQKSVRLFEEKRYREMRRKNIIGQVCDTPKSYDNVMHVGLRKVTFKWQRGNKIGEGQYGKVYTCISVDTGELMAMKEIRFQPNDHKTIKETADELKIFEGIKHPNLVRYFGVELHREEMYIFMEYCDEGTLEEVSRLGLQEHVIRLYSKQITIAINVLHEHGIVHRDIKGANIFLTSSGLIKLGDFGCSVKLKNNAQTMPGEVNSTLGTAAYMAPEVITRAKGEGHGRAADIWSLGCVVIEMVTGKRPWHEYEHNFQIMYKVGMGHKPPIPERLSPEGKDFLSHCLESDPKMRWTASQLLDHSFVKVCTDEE
Wee1-like protein kinase, sequence (P30291 whole entry): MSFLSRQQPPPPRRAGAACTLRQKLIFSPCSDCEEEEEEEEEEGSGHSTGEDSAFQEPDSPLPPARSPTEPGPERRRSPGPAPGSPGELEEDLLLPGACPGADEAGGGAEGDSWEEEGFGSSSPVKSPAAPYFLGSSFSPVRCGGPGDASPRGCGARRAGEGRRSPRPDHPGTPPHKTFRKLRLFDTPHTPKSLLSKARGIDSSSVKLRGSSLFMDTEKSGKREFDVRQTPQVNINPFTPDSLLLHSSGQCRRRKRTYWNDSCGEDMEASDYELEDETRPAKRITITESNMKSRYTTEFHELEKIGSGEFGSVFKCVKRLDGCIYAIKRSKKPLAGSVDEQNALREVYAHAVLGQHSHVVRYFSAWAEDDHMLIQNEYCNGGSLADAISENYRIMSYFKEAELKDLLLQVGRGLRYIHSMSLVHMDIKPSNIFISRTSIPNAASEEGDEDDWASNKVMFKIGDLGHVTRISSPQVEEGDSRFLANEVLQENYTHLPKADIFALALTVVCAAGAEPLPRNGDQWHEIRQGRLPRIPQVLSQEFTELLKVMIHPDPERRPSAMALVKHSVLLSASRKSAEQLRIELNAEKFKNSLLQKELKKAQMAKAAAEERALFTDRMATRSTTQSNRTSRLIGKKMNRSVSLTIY

As usually defined, the Kd is a measure of binding affinity in units of concentration. On to `COc1cc2nccc(Oc3ccc(NC(=O)NC4CC4)c(Cl)c3)c2cc1C(N)=O` [LENVATINIB], for which the Kd (in experiment [1]; in experiment [2]; in experiment [3]; in experiment [4]; in experiment [5]; on Wee1-like protein kinase) was > 30 µM (inactive) throughout.

As for `CO[C@H]1C[C@@H]2CC[C@@H](C)[C@@](O)(O2)C(=O)C(=O)N2CCCC[C@H]2C(=O)O[C@H]([C@H](C)C[C@@H]2CC[C@@H](OCCO)[C@H](OC)C2)CC(=O)[C@H](C)/C=C(\C)[C@@H](O)[C@@H](OC)C(=O)[C@H](C)C[C@H](C)/C=C/C=C/C=C/1C` [EVEROLIMUS], the Kd (in experiment [1]; in experiment [2]; in experiment [3]; in experiment [4]; in experiment [5]; at Wee1-like protein kinase) was > 30 µM (inactive) each time.

Consider `Cc1ccc(NC(=O)c2ccc(CN3CC[C@H](N(C)C)C3)c(C(F)(F)F)c2)cc1Nc1nccc(-c2cncnc2)n1` [BAFETINIB], for which the Kd (in experiment [1]; in experiment [2]; in experiment [3]; in experiment [4]; in experiment [5]; on Wee1-like protein kinase) was > 30 µM (inactive) each time.

On to `CC(C)Nc1cc(-c2c[nH]c(C(=O)N[C@H](CO)c3cccc(Cl)c3)c2)c(Cl)cn1` [ULIXERTINIB], for which the Kd in experiment [1] was > 30 µM (inactive); in experiment [2], > 30 µM (inactive); in experiment [3], > 30 µM (inactive); in experiment [4] it was > 30 µM (inactive); in experiment [5] it was 0.16 µM (active); on Wee1-like protein kinase it was > 30 µM (inactive).

Turning to `O=C(Nc1cccc(Cl)c1)Nc1ncc(CCNc2ncnc3ccsc23)s1` [SNS-314], the Kd (in experiment [1]; in experiment [2]; in experiment [3]; in experiment [4]; in experiment [5]; at Wee1-like protein kinase) was > 30 µM (inactive) in each case.

As for `O=C1NC(=O)/C(=C/c2ccc3nccc(-c4ccncc4)c3c2)S1` [GSK-1059615], the Kd (in experiment [1]; in experiment [2]; in experiment [3]; in experiment [5]; at Wee1-like protein kinase) was > 30 µM (inactive) in each case.

Take `Cc1cn(-c2cc(NC(=O)c3ccc(C)c(Nc4nccc(-c5cccnc5)n4)c3)cc(C(F)(F)F)c2)cn1` [NILOTINIB]: the Kd in experiment [3] is > 30 µM (inactive).

In the case of `COc1cc(CCc2cc(NC(=O)c3ccc(N4C[C@@H](C)N[C@@H](C)C4)cc3)n[nH]2)cc(OC)c1` [AZD-4547], the Kd (in experiment [1]; in experiment [2]; in experiment [3]; in experiment [5]; on Wee1-like protein kinase) was > 30 µM (inactive) each time.

For the compound `C[C@@H]1CN(Cc2ccc(F)cc2)[C@@H](C)CN1C(=O)c1cc2c(C(=O)C(=O)N(C)C)cn(C)c2cc1Cl` [TALMAPIMOD], the Kd (in experiment [1]; in experiment [2]; in experiment [3]; in experiment [5]; on Wee1-like protein kinase) was > 30 µM (inactive) in each case.

In the case of `CCS(=O)(=O)N1CC(CC#N)(n2cc(-c3ncnc4[nH]ccc34)cn2)C1` [BARICITINIB], the Kd (in experiment [1]; in experiment [2]; in experiment [3]; in experiment [4]; in experiment [5]; on Wee1-like protein kinase) was > 30 µM (inactive) in each case.

Regarding `COc1ccc(-c2ccc3c(N4CCOC[C@@H]4C)nc(N4CCOC[C@@H]4C)nc3n2)cc1CO` [AZD-8055], the Kd (in experiment [1]; in experiment [2]; in experiment [3]; in experiment [4]; in experiment [5]; at Wee1-like protein kinase) was > 30 µM (inactive) each time.

Consider `C=CC(=O)N1CCC(Oc2cc3c(Nc4ccc(Cl)c(Cl)c4F)ncnc3cc2OC)CC1` [POZIOTINIB], for which the Kd (in experiment [1]; in experiment [2]; in experiment [3]; in experiment [5]; on Wee1-like protein kinase) was > 30 µM (inactive) throughout.

Take `Nc1nc(N)c2nc(-c3cccc(O)c3)c(-c3cccc(O)c3)nc2n1` [TG100-115]: the Kd in experiment [3] and in experiment [4] was > 30 µM (inactive) each time.

Regarding `CN1CCN(c2ccc3nc(-c4c(N)c5c(F)cccc5[nH]c4=O)[nH]c3c2)CC1` [DOVITINIB], the Kd in experiment [3] is > 30 µM (inactive).

Consider `Cc1nc(N)sc1-c1ccnc(Nc2ccc(N3CCOCC3)cc2)n1` [CYC-116], for which the Kd in experiment [1], in experiment [2], in experiment [3], in experiment [4] and in experiment [5] was > 30 µM (inactive) throughout.

Turning to `C[C@@H](Nc1cc(F)cc(F)c1)c1cc(C(=O)N(C)C)cc2c(=O)cc(N3CCOCC3)oc12` [AZD-8186], the Kd (in experiment [1]; in experiment [2]; in experiment [3]; in experiment [5]; on Wee1-like protein kinase) was > 30 µM (inactive) in each case.

Turning to `C[C@@H](c1ccc2nccn2c1)n1nnc2ncc(-c3cnn(C)c3)nc21` [SAVOLITINIB], the Kd (in experiment [2]; in experiment [3]; in experiment [4]; in experiment [5]; on Wee1-like protein kinase) was > 30 µM (inactive) in each case.

For `CCn1c(-c2nonc2N)nc2c(C#CC(C)(C)O)ncc(OC[C@H]3CCCNC3)c21` [GSK-690693], the Kd in experiment [3] and in experiment [4] was > 30 µM (inactive) throughout.

Consider `N[C@@H]1CCCN(c2c(/C=C3\SC(=O)NC3=O)cccc2-c2ccccc2)C1`, for which the Kd (in experiment [2]; in experiment [3]; in experiment [4]; in experiment [5]; at Wee1-like protein kinase) was > 30 µM (inactive) each time.

Turning to `COc1cc(OC)c(/C=C/S(=O)(=O)Cc2ccc(OC)c(NCC(=O)O)c2)c(OC)c1` [RIGOSERTIB], the Kd (in experiment [1]; in experiment [2]; in experiment [3]; in experiment [5]; at Wee1-like protein kinase) was > 30 µM (inactive) each time.

Regarding `Cc1ccc(S(=O)(=O)Nc2nc3ccccc3nc2Nc2ccc3nsnc3c2)cc1`, the Kd (in experiment [1]; in experiment [2]; in experiment [3]; in experiment [5]; at Wee1-like protein kinase) was > 30 µM (inactive) each time.

Turning to `CN1N=C(N)c2cn([C@@H]3O[C@H](COP(=O)(O)O)[C@@H](O)[C@H]3O)c3ncnc1c23` [TRICIRIBINE PHOSPHATE], the Kd (in experiment [1]; in experiment [2]; in experiment [4]; in experiment [5]; at Wee1-like protein kinase) was > 30 µM (inactive) in each case.
